≈ marks a conversion by molar mass, not a printed value.
Legend:
Format in all cases: cell-based
[1] = system: Staphylococcus aureus ATCC 33591; assay: MIC microdilution assay; details: Staphylococcus aureus, ATCC33591; S. aureus ATCC 33591; CAMHB; 35±2° C. 18 to 20 hours; two values given; read-out: MIC
Procedure: Strain numbers starting with “ATCC” were acquired from the American Type Culture Collection (Manassas, VA), while strain numbers starting with “CDC” were acquired from the Centers for Disease Control and Prevention (Atlanta, GA). All strains were maintained as −80° C. frozen glycerol stocks. S. aureus and P. aeruginosa were grown overnight on Tryptic Soy Agar (TSA) plates at 35±2° C., ambient atmosphere, while S. pyogenes was grown overnight on TSA+5% defibrinated sheep blood at 35±2° C., 5% CO2. All fungal species (i.e. C. albicans, C. auris and C. herbarum) were grown on Sabouraud Dextrose Agar (SDA) plates. C. herbarum was grown at 25±2° C. for 5 to 7 days, while all other fungal strains were grown at 35±2° C. overnight.
(§1) Test articles Compound 2 (batch #2G13A0.368) and Compound 23 (batch #2G17A0.372) were received and stored at 4° C. The antibiotic Tobramycin and antifungal Amphotericin B were used as quality control (QC) compounds for the MIC assay. Stock solutions of 3.2 mg/mL Tobramycin (Sigma-Aldrich, cat #T1783-500MG) and 3.2 mg/mL Amphotericin B (CP Lab Chemicals, cat #TOK-A007-1G) were prepared in sterile ultrapure water.
(§2) For bacteria strains, a few colonies of each strain were collected with a sterile swab and used to make a McFarland 0.5 standard solution (approximately 1×10^8 CFU/mL) in sterile PBS. The McFarland was then diluted 1:180 in Cation Adjusted Muller-Hinton Broth (CAMHB) for S. aureus and P. aeruginosa, and in CAVHIIB+5% defibrinated sheep blood for S. pyogenes. 90 μL of this inoculum was combined with 10 μL of the 10× test article in a 96-well plate for a final concentration of 1×.
All bacterial-strain MIC 96-well plates were incubated at 35±2° C. for 18 to 20 hours, while all Candida MIC 96-well plates were incubated at 35±2° C. for 24 to 48 hours. C. herbarum MIC 96-well plates were incubated at 25±2° C. for 3 to 5 days, until growth was visible in the growth control wells. After incubation, the 96-well plates were examined visually and on a spectrophotometer at absorbance OD650. […]

[2] = system: Acinetobacter baumannii Eurofins 1674627; assay: MIC microdilution assay (Example 32); details: Acinetobacter baumannii; A. baumannii Eurofins 1674627; 35±2° C. 18 to 20 hours; two values given; read-out: MIC
Procedure: (§3) Strain IDs starting with “ATCC” were acquired from the American Type Culture Collection (Manassas, VA), strain IDs starting with “Eurofins” were acquired from Eurofins (Herndon, VA), while strain IDs starting with “CDC” were acquired from the Centers for Disease Control and Prevention (Atlanta, GA). All strains were maintained as −80° C. frozen glycerol stocks. S. aureus and P. aeruginosa were grown overnight on Tryptic Soy Agar (TSA) plates at 35±2° C., ambient atmosphere, while S. pyogenes was grown overnight on TSA+5% defibrinated sheep blood at 35±2° C., 5% CO2. C. jejuni was grown for 48 hours on TSA+5% defibrinated sheep blood at 35±2° C., in a microaerophilic environment generated by CampyGen sachet. All fungal species (i.e. C. albicans and C. auris) were grown overnight on Sabouraud Dextrose Agar (SDA) plates at 35±2° C., ambient atmosphere.
as §1, with “Test article” for “Test articles”, “Compound 1” for “Compound 2”, “(batch #7G30A9.203) was” for “(batch #2G13A0.368) and Compound 23 (batch #2G17A0.372) were received and”
as §2, with “aeruginosa. S. pyogenes McFarland was diluted 1:180” for “aeruginosa, and”, “CAMHB+5%” for “CAVHIIB+5%”, “blood, while C. jejuni McFarland was diluted 1:180 in CAMHB+5% laked horse blood.” for “blood for S. pyogenes.”
(§4) Except for C. jejuni, all bacterial-strain MIC 96-well plates were incubated at 35±2° C. for 18 to 20 hours, ambient atmosphere. C. jejuni was incubated at 35±2° C. for 48 hours, under microaerophilic condition. All Candida MIC 96-well plates were incubated at 35±2° C. for 24 to 48 hours, ambient atmosphere, until growth in control wells were observed. After incubation, the 96-well plates were examined visually and on a spectrophotometer at absorbance OD650. MIC is defined as the lowest concentration of a compound in which no visible growth is observed.

[3] = system: Campylobacter jejuni CDC 0413; assay: MIC microdilution assay (Example 32); details: Campylobacter jejuni, CDC0413; C. jejuni CDC 0413; CAMHB+5% laked horse blood; 35±2° C. 48 hours, microaerophilic; two values given; read-out: MIC
Procedure: as §3
as §1, with “Test article” for “Test articles”, “Compound 1” for “Compound 2”, “(batch #7G30A9.203) was” for “(batch #2G13A0.368) and Compound 23 (batch #2G17A0.372) were received and”
as §2, with “aeruginosa. S. pyogenes McFarland was diluted 1:180” for “aeruginosa, and”, “CAMHB+5%” for “CAVHIIB+5%”, “blood, while C. jejuni McFarland was diluted 1:180 in CAMHB+5% laked horse blood.” for “blood for S. pyogenes.”
as §4

[4] = system: Pseudomonas aeruginosa ATCC 27853; assay: MIC microdilution assay (Example 32); details: Pseudomonas aeruginosa, ATCC27853; P. aeruginosa ATCC 27853 (quality control); CAMHB; 35±2° C. 18 to 20 hours; two values given; read-out: MIC
Procedure: as §3
as §1, with “Test article” for “Test articles”, “Compound 1” for “Compound 2”, “(batch #7G30A9.203) was” for “(batch #2G13A0.368) and Compound 23 (batch #2G17A0.372) were received and”
as §2, with “aeruginosa. S. pyogenes McFarland was diluted 1:180” for “aeruginosa, and”, “CAMHB+5%” for “CAVHIIB+5%”, “blood, while C. jejuni McFarland was diluted 1:180 in CAMHB+5% laked horse blood.” for “blood for S. pyogenes.”
as §4

[5] = system: Pseudomonas aeruginosa CDC 0248; assay: MIC microdilution assay (Example 32); details: Pseudomonas aeruginosa, CDC0248; P. aeruginosa CDC 0248; CAMHB; 35±2° C. 18 to 20 hours; two values given; read-out: MIC
Procedure: as §3
as §1, with “Test article” for “Test articles”, “Compound 1” for “Compound 2”, “(batch #7G30A9.203) was” for “(batch #2G13A0.368) and Compound 23 (batch #2G17A0.372) were received and”
as §2, with “aeruginosa. S. pyogenes McFarland was diluted 1:180” for “aeruginosa, and”, “CAMHB+5%” for “CAVHIIB+5%”, “blood, while C. jejuni McFarland was diluted 1:180 in CAMHB+5% laked horse blood.” for “blood for S. pyogenes.”
as §4

[6] = system: Pseudomonas aeruginosa Eurofins 1674623; assay: MIC microdilution assay (Example 32); details: Pseudomonas aeruginosa; P. aeruginosa Eurofins 1674623; CAMHB; 35±2° C. 18 to 20 hours; two values given; read-out: MIC
Procedure: as §3
as §1, with “Test article” for “Test articles”, “Compound 1” for “Compound 2”, “(batch #7G30A9.203) was” for “(batch #2G13A0.368) and Compound 23 (batch #2G17A0.372) were received and”
as §2, with “aeruginosa. S. pyogenes McFarland was diluted 1:180” for “aeruginosa, and”, “CAMHB+5%” for “CAVHIIB+5%”, “blood, while C. jejuni McFarland was diluted 1:180 in CAMHB+5% laked horse blood.” for “blood for S. pyogenes.”
as §4

[7] = system: Streptococcus pyogenes Eurofins 2065755; assay: MIC microdilution assay (Example 32); details: Streptococcus pyogenes; S. pyogenes Eurofins 2065755; CAMHB+5% defibrinated sheep blood; 35±2° C. 18 to 20 hours; two values given; read-out: MIC
Procedure: as §3
as §1, with “Test article” for “Test articles”, “Compound 1” for “Compound 2”, “(batch #7G30A9.203) was” for “(batch #2G13A0.368) and Compound 23 (batch #2G17A0.372) were received and”
as §2, with “aeruginosa. S. pyogenes McFarland was diluted 1:180” for “aeruginosa, and”, “CAMHB+5%” for “CAVHIIB+5%”, “blood, while C. jejuni McFarland was diluted 1:180 in CAMHB+5% laked horse blood.” for “blood for S. pyogenes.”
as §4

MIC [1]: > 32 µg/mL | MIC [2]: 1 µg/mL (≈ 2.14 µM) | MIC [3]: > 32 µg/mL | MIC [4]: 0.25 µg/mL (≈ 0.535 µM) | MIC [5]: > 32 µg/mL | MIC [6]: > 32 µg/mL | MIC [7]: 16 µg/mL (≈ 34.2 µM)
SMILES: NC[C@H]1O[C@H](O[C@H]2[C@H](O)[C@@H](O[C@H]3O[C@H](CO)[C@@H](O)[C@H](N)[C@H]3O)[C@H](N)C[C@@H]2N)[C@H](N)C[C@@H]1O [Tobramycin]
